Test results taken from the Kinase Knowledgebase extract (Sharma et al. 2016).

Experiments:
PIK3CD (Human) [1] = target: PIK3CD (Human) (UniProt O00329); test: Cell-Based Assay; conditions: raji
PIK3CG (human) = PIK3CG (human) (UniProt P48736); test: Enzyme Assay
PIK3CD (Human) [2] = target: PIK3CD (Human) (UniProt O00329); test: Enzyme Assay
PIK3CB (Human) = PIK3CB (Human) (UniProt P42338); test: Enzyme Assay
Chain of PIK3CB (Human) (P42338 whole entry, looked up): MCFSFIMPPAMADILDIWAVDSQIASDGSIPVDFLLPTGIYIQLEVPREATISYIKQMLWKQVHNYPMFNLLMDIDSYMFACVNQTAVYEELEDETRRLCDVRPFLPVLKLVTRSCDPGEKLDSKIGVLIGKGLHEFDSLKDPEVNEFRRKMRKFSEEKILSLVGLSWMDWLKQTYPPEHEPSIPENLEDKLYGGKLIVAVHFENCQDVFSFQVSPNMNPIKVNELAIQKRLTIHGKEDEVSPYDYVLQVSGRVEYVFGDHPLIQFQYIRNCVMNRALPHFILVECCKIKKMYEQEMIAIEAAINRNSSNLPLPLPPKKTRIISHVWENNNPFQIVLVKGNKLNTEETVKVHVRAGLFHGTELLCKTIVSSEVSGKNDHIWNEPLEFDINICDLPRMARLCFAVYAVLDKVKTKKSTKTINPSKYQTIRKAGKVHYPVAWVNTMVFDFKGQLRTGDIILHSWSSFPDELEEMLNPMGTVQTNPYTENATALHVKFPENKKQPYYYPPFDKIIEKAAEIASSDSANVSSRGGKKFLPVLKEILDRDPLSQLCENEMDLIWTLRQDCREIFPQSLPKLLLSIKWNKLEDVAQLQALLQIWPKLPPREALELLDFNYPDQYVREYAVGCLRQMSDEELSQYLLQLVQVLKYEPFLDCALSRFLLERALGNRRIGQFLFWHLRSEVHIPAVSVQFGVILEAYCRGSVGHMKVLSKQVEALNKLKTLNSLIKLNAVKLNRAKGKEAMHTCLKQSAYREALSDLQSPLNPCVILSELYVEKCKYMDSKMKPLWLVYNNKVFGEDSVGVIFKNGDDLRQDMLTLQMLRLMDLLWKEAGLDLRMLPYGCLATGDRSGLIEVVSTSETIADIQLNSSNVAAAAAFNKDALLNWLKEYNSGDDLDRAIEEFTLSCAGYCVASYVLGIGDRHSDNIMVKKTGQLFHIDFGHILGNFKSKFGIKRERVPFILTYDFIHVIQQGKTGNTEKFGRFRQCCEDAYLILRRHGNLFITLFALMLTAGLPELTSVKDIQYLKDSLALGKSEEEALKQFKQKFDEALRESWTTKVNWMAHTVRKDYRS

Chain of PIK3CG (human) (P48736 whole entry, looked up): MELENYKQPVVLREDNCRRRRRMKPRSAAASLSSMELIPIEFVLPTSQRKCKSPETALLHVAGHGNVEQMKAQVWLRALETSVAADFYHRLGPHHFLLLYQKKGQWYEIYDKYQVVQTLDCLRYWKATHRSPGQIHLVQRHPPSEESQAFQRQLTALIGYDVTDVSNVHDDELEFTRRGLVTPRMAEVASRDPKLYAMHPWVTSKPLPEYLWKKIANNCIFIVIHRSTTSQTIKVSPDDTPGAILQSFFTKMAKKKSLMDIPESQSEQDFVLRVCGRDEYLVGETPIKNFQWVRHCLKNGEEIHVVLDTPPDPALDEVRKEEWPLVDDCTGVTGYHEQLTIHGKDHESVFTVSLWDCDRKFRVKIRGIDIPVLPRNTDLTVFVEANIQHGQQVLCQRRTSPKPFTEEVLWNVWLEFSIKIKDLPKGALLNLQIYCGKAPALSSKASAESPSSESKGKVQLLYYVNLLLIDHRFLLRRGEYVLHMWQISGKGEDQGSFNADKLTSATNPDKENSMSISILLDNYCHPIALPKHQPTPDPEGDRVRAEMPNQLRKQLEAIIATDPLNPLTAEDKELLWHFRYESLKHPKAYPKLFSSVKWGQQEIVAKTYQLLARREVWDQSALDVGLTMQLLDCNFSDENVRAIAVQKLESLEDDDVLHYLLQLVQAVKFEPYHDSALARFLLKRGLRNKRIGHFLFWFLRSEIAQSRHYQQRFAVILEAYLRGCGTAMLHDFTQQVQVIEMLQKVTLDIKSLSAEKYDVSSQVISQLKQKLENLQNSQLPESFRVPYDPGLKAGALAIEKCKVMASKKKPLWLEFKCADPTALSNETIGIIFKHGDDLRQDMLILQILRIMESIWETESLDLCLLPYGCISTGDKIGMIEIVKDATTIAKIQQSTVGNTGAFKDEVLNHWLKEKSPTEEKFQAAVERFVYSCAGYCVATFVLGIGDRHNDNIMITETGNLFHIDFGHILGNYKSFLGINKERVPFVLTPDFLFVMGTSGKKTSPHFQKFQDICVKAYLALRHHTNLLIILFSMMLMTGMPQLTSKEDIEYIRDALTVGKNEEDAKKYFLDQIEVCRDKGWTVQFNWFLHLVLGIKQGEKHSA
Chain of PIK3CD (Human) (O00329 whole entry, looked up): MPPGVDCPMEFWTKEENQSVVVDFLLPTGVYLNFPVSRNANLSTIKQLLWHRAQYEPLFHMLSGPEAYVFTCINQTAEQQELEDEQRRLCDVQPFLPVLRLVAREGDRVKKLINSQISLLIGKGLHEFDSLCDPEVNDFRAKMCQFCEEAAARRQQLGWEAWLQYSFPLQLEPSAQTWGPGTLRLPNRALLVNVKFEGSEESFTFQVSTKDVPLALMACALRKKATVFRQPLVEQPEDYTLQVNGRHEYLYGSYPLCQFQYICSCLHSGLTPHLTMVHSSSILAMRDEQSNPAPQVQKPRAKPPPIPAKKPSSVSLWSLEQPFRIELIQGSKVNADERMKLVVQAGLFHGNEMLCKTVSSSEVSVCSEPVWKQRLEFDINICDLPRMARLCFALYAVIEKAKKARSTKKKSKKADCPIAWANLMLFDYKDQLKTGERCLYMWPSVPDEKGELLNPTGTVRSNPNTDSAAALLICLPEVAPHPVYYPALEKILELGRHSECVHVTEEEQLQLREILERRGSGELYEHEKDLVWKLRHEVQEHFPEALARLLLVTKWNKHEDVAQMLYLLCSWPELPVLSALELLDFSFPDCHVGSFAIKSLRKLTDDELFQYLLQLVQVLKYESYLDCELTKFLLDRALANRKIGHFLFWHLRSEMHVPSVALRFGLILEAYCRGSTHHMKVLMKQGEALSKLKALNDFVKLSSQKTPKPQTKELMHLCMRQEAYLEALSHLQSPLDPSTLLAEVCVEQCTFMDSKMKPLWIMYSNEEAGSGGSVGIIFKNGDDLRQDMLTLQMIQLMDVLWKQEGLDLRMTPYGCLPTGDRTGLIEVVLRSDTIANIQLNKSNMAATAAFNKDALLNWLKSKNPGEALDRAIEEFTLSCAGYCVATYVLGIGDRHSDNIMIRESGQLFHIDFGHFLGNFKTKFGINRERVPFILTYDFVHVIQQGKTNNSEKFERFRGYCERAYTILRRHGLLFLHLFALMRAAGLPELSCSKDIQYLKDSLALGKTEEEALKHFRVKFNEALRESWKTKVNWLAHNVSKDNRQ

IC50 (PIK3CD (Human) [1]) | IC50 (PIK3CG (human)) | IC50 (PIK3CD (Human) [2]) | IC50 (PIK3CB (Human)) | SMILES
1 to 10 µM | 1 to 5 µM | 5 to 10 µM | 5 to 10 µM | C[C@H](NC(=O)c1c(N)nn2cccnc12)c1cc2cccc(C#CC3CCCC3)c2c(=O)n1-c1ccccc1
1 to 10 µM | 0.5 to 1 µM | 5 to 10 µM | 5 to 10 µM | Cc1nc(C)c(C#Cc2cccc3cc([C@H](C)NC(=O)c4c(N)nn5cccnc45)n(-c4ccccc4)c(=O)c23)s1
0.5 to 1 µM | 0.001 to 0.1 µM | 5 to 10 µM | 5 to 10 µM | Cc1nc(C#Cc2cccc3nc([C@H](C)NC(=O)c4c(N)nn5cccnc45)n(-c4ccccc4)c(=O)c23)cs1
 | 0.5 to 1 µM | 5 to 10 µM | 5 to 10 µM | CC(C)n1c([C@H](C)NC(=O)c2c(N)nn3cccnc23)cc2cccc(C#Cc3cnn(C)c3)c2c1=O
0.5 to 1 µM | 0.1 to 0.5 µM | 5 to 10 µM | 5 to 10 µM | COc1ccc(C#Cc2cccc3cc([C@H](C)NC(=O)c4c(N)nn5cccnc45)n(-c4ccccc4)c(=O)c23)cn1
0.5 to 1 µM | 0.5 to 1 µM | 5 to 10 µM | 5 to 10 µM | CC(C)C#Cc1cccc2nc([C@H](C)NC(=O)c3c(N)nn4cccnc34)n(-c3ccccc3)c(=O)c12
0.001 to 0.1 µM | 1 to 5 µM | 0.001 to 0.5 µM | 5 to 10 µM | C[C@H](NC(=O)c1c(N)nn2cccnc12)c1cc2cccc(C#Cc3ccccc3)c2c(=O)n1-c1ccccc1
 | 0.1 to 0.5 µM | 5 to 10 µM | 0.5 to 1 µM | C[C@H](NC(=O)c1c(N)nn2cccnc12)c1cc2cccc(C#Cc3cnn(C)c3)c2c(=O)n1C
0.5 to 1 µM | 0.1 to 0.5 µM | 5 to 10 µM | 5 to 10 µM | CC(=O)N1CCC(C#Cc2cccc3cc([C@H](C)NC(=O)c4c(N)nn5cccnc45)n(-c4ccccc4)c(=O)c23)CC1
0.1 to 0.5 µM | 0.1 to 0.5 µM | 5 to 10 µM | 5 to 10 µM | C[C@H](NC(=O)c1c(N)nn2cccnc12)c1cc2cccc(C#Cc3cncs3)c2c(=O)n1-c1ccccc1
0.5 to 1 µM | 0.001 to 0.1 µM | 5 to 10 µM | 5 to 10 µM | Cc1ncc(C#Cc2cccc3cc([C@H](C)NC(=O)c4c(N)nn5cccnc45)n(-c4ccccc4)c(=O)c23)n1C
0.1 to 0.5 µM | 0.1 to 0.5 µM | 5 to 10 µM | 5 to 10 µM | C[C@H](NC(=O)c1c(N)nn2cccnc12)c1cc2cccc(C#Cc3cccnc3)c2c(=O)n1-c1ccccc1
0.1 to 0.5 µM | 0.001 to 0.1 µM | 0.5 to 1 µM | 5 to 10 µM | C[C@H](NC(=O)c1c(N)nn2cccnc12)c1cc2cccc(C#C[C@@H](C)O)c2c(=O)n1-c1ccccc1
0.5 to 1 µM | 0.1 to 0.5 µM | 5 to 10 µM | 5 to 10 µM | C[C@H](NC(=O)c1c(N)nn2cccnc12)c1cc2cccc(C#Cc3cncn3C)c2c(=O)n1-c1ccccc1
0.001 to 0.1 µM | 0.001 to 0.1 µM | 0.001 to 0.5 µM | 1 to 5 µM | C[C@H](NC(=O)c1c(N)nn2cccnc12)c1cc2cccc(C#CCN3CCCC3=O)c2c(=O)n1-c1ccccc1
0.1 to 0.5 µM |  | 5 to 10 µM | 5 to 10 µM | C[C@H](NC(=O)c1c(N)nn2cccnc12)c1nc2cccc(C#Cc3cnn(C)c3)c2c(=O)n1-c1ccccc1
1 to 10 µM | 0.1 to 0.5 µM | 5 to 10 µM | 5 to 10 µM | C[C@H](NC(=O)c1c(N)nn2cccnc12)c1cc2cccc(C#CC(C)(C)O)c2c(=O)n1-c1ccccc1
 | 0.001 to 0.1 µM | 5 to 10 µM | 1 to 5 µM | CNS(=O)(=O)CCn1c([C@H](C)NC(=O)c2c(N)nn3cccnc23)cc2cccc(C#Cc3cnn(C)c3)c2c1=O
 | 0.5 to 1 µM | 5 to 10 µM | 5 to 10 µM | C[C@H](NC(=O)c1c(N)nn2cccnc12)c1cc2cccc(C#CC3CCN(C)CC3)c2c(=O)n1-c1ccccc1

IC50 (PIK3CD (Human) [1]) | IC50 (PIK3CG (human)) | IC50 (PIK3CD (Human) [2]) | IC50 (PIK3CB (Human)) | SMILES
 | 0.1 to 0.5 µM | 5 to 10 µM | 5 to 10 µM | Cc1cc(C)n2nc(N)c(C(=O)N[C@@H](C)c3cc4cccc(C#Cc5cnn(C)c5)c4c(=O)n3-c3ccccc3)c2n1
 | 1 to 5 µM | 5 to 10 µM | 5 to 10 µM | Cn1cc(C#Cc2cccc3cc(CNC(=O)c4c(N)nn5cccnc45)n(-c4ccccc4)c(=O)c23)cn1
 | 0.1 to 0.5 µM | 1 to 5 µM | 1 to 5 µM | Cc1nnc(C#Cc2cccc3cc([C@H](C)NC(=O)c4c(N)nn5cccnc45)n(-c4ccccc4)c(=O)c23)s1
 | 1 to 5 µM | 5 to 10 µM | 5 to 10 µM | C[C@H](NC(=O)c1c(N)nn2cccnc12)c1cc2cccc(C#Cc3cnn(C)c3)c2c(=O)n1C1CCCCC1
 | 0.1 to 0.5 µM | 5 to 10 µM | 5 to 10 µM | Cc1cccc(-n2c([C@H](C)NC(=O)c3c(N)nn4cccnc34)cc3cccc(C#Cc4cnn(C)c4)c3c2=O)c1
 | 0.001 to 0.1 µM | 5 to 10 µM | 5 to 10 µM | Cc1ccccc1-n1c([C@H](C)NC(=O)c2c(N)nn3cccnc23)cc2cccc(C#Cc3cnn(C)c3)c2c1=O
 | 0.001 to 0.1 µM | 5 to 10 µM | 1 to 5 µM | C[C@H](NC(=O)c1c(N)nn2cccnc12)c1cc2cccc(C#Cc3cnn(C)c3)c2c(=O)n1CCS(=O)(=O)N(C)C
 | 0.001 to 0.1 µM | 5 to 10 µM | 1 to 5 µM | Cc1ccn2nc(N)c(C(=O)N[C@@H](C)c3cc4cccc(C#Cc5cnn(C)c5)c4c(=O)n3-c3ccccc3)c2n1
 | 0.001 to 0.1 µM | 5 to 10 µM | 5 to 10 µM | C[C@H](NC(=O)c1c(N)nn2cccnc12)c1cc2cccc(C#Cc3cnn(C)c3)c2c(=O)n1-c1cccc(F)c1
 | 0.1 to 0.5 µM | 5 to 10 µM | 5 to 10 µM | Cc1ccnc2c(C(=O)N[C@@H](C)c3cc4cccc(C#Cc5cnn(C)c5)c4c(=O)n3-c3ccccc3)cnn12
 | 0.1 to 0.5 µM | 5 to 10 µM | 5 to 10 µM | C[C@H](NC(=O)c1c(N)nn2cccnc12)c1cc2cccc(C#Cc3cnn(C)c3)c2c(=O)n1-c1ccc(F)c(F)c1
 | 0.001 to 0.1 µM | 0.001 to 0.5 µM | 0.001 to 0.5 µM | C#Cc1cccc2nc([C@H](C)NC(=O)c3nccnc3N)n(-c3ccccc3)c(=O)c12
 | > 5 µM | 5 to 10 µM | 5 to 10 µM | C[C@H](NC(=O)c1c(N)nn2cccnc12)c1cc2cccc(C=Cc3ccccc3)c2c(=O)n1-c1ccccc1
 | 0.001 to 0.1 µM | 5 to 10 µM | 5 to 10 µM | CC[C@H](NC(=O)c1c(N)nn2cccnc12)c1cc2cccc(C#Cc3cnn(C)c3)c2c(=O)n1-c1ccccc1
 | 0.001 to 0.1 µM | 1 to 5 µM | 1 to 5 µM | C[C@H](NC(=O)c1c(N)nn2cccnc12)c1cc2cccc(N)c2c(=O)n1-c1ccccc1
 | 0.1 to 0.5 µM | 5 to 10 µM | 5 to 10 µM | Cc1ccc(-n2c([C@H](C)NC(=O)c3c(N)nn4cccnc34)cc3cccc(C#Cc4cnn(C)c4)c3c2=O)cc1
0.1 to 0.5 µM |  | 5 to 10 µM | 1 to 5 µM | C[C@H](NC(=O)c1c(N)nn2cccnc12)c1cc2cccc(C#Cc3cnn(C)c3)c2c(=O)n1C1CC1
 | 0.001 to 0.1 µM | 5 to 10 µM | 5 to 10 µM | C[C@H](NC(=O)c1c(N)nn2cccnc12)c1cc2cccc(C#Cc3cnn(C)c3)c2c(=O)n1-c1ccc(F)cc1

SMILES | IC50 (PIK3CD (Human) [1]) | IC50 (PIK3CG (human)) | IC50 (PIK3CD (Human) [2]) | IC50 (PIK3CB (Human))
C[C@H](NC(=O)c1c(N)nn2cccnc12)c1cc2cccc(C#CC3(O)CN4CCC3CC4)c2c(=O)n1-c1ccccc1 (some centres undefined) | 1 to 10 µM | 0.5 to 1 µM | 5 to 10 µM | 5 to 10 µM
